From article PMC7933229 (Scientific Reports, 2021)
Read-outs that look alike come from different tables or passages of the source. Residues, ends and D or L forms follow the SMILES beside them.

T1: ACE (from rabbit lung) (Oryctolagus cuniculus, UniProt P12822)
T1 construct: ACE (from rabbit lung) were obtained from Sigma-Aldrich Co; purchased Sigma-Aldrich Co. (St. Louis, MO, USA); host or cells: rabbit lung (tissue-derived enzyme)
T1 sequence (P12822 34-1310): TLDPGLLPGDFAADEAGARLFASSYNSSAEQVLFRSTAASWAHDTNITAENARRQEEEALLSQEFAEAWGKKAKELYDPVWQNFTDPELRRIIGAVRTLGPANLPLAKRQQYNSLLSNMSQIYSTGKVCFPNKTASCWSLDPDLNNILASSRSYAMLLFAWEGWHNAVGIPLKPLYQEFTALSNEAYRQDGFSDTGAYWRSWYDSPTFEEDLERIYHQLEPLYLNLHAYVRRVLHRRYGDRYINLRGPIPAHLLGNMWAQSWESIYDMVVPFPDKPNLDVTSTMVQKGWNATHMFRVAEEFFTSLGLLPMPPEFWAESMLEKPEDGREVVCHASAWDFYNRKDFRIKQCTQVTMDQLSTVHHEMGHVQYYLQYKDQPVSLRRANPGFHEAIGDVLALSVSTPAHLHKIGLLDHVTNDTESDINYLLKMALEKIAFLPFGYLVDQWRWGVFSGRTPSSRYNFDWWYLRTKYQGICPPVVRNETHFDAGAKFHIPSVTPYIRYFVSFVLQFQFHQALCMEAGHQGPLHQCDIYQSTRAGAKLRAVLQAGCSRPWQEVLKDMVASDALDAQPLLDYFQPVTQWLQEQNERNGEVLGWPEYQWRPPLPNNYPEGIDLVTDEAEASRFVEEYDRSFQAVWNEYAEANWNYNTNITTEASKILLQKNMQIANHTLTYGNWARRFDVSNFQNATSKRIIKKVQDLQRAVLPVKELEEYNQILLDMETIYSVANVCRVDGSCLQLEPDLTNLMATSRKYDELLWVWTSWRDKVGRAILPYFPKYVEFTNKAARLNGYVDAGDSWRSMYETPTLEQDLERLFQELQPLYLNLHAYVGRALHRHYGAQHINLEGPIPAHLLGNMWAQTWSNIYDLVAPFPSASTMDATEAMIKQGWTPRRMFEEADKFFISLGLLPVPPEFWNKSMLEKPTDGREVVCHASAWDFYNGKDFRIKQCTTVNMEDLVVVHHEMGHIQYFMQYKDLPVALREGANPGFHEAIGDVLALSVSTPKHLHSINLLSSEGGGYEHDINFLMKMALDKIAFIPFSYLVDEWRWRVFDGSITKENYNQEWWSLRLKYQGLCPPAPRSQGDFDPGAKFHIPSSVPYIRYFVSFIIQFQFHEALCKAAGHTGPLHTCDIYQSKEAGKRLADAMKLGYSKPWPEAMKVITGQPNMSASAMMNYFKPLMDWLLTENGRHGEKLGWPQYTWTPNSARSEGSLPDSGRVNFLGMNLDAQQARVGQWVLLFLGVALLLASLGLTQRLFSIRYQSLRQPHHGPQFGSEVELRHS

T2: angiotensin I-converting enzyme (ACE) from rabbit lung (rabbit) (UniProt P12822)
T2 sequence: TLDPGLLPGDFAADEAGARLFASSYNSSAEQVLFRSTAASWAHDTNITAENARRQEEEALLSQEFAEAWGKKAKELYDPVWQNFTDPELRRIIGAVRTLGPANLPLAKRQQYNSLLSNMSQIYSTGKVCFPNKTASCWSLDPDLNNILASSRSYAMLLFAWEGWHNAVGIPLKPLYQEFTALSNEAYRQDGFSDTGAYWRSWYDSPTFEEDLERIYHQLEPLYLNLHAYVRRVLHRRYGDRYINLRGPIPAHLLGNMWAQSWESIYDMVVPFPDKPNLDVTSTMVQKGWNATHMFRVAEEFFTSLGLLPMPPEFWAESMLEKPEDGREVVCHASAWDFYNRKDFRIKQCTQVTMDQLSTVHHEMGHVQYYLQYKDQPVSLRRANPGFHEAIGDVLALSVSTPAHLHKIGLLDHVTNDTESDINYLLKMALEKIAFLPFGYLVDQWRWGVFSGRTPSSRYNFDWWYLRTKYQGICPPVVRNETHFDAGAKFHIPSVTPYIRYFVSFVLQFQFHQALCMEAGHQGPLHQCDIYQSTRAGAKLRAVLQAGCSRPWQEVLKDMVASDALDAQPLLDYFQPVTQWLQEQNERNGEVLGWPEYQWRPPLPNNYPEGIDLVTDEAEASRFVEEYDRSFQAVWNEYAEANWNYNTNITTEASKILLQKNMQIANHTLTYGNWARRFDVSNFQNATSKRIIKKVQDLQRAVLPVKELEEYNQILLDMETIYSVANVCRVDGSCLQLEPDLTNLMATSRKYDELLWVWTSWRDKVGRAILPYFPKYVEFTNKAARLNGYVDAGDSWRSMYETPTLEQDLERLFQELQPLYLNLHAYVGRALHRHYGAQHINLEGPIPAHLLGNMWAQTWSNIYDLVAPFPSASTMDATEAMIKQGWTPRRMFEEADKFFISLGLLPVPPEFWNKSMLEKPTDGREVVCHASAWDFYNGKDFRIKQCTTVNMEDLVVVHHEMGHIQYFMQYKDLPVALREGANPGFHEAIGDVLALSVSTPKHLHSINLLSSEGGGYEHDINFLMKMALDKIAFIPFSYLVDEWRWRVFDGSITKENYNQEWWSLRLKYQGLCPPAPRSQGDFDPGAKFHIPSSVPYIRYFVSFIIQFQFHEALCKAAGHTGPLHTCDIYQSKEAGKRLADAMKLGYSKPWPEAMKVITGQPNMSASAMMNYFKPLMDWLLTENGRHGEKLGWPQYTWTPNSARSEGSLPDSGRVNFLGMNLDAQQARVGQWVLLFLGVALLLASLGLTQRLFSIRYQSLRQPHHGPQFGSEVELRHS


Tests used:
[1] = molecular target: T1, ACE (from rabbit lung); experiment: ACE inhibitory activity (HHL substrate, RP-HPLC of hippuric acid); assay type: biochemical
Text: Wheat gluten was obtained from CF Haishi Biotechnology Ltd. Co. (Beijing, China) and kept in sealed plastic bags at room temperature until use. Alcalase 2.4L (2.4 AU/g) was purchased from Novo Nordisk (Copenhagen, Denmark). Protex 7L (1600 AU/g) and α-amylase (26,000 RAU/g) were bought from Genencor Division of Danisco (Rochester, NY, USA). Fluorescein sodium salt, Trolox, DPPH, 2,2′-azobis(2-methylpropionamidine) dihydrochloride (AAPH), hippuryl-histidyl-leucine (HHL), hippuric acid (HA), and ACE (from rabbit lung) were obtained from Sigma-Aldrich Co. (St. Louis, MO, USA). The ABTS assay kit was supplied by Beyotime Biotechnology (Haimen, China). Acetonitrile and methanol were provided by Fisher Scientific (Pittsburgh, PA, USA). Trifluoroacetic acid (TFA) was supplied by Alfa Aesar (Ward Hill, MA, USA). Synthesized peptides were obtained from Scilight Biotechnology Co., Ltd (Beijing, China). The purity of the synthesized peptides was more than 98% according to HPLC analysis. All other chemicals were of analytical grade.
The modified approach of Cushman and Cheung[68] was used to analyze ACE inhibitory activity. Briefly, the preincubation of 20 µL of sample and 30 µL of ACE solution (60 mU/mL) was performed at 37 °C for 5 min. After adding 50 µL of the substrate (7.6 mmol/L HHL in 50 mmol/L sodium borate buffer containing 300 mmol/L NaCl at pH 8.3), the 30-min incubation of the mixture was performed at ambient temperature. The reaction was ceased with 100 µL of 1.0 mol/L HCl. RP-HPLC was employed to determine the amount of HA liberated by ACE on an Inertsil ODS-SP C18 column (4.6 mm × 150 mm, Shimadzu, Kyoto, Japan). The peak area was subject to the calculation of ACE inhibitory activity.

[2] = molecular target: T2, angiotensin I-converting enzyme (ACE) from rabbit lung (rabbit)
[3] = tested on: ACE; conditions: cited from earlier work
[4] = calculated from mmol/L values, read-out: ACE IC50 calculated in the units of mg/mL (converted)
[5] = synthesized peptides, read-out: ACE IC50

Molecule | IC50 [1, 4] [µM] | IC50 [1, 5] [µM] | IC50 of ACE inhibitory activity (hippuric acid liberated from HHL by ACE, RP-HPLC) [2] [µM] | other results
C[C@H](N)C(=O)N1CCC[C@H]1C(=O)N[C@@H](CO)C(=O)N[C@@H](Cc1ccc(O)cc1)C(=O)O [Ala-Pro-Ser-Tyr] (H-APSY-OH) | 1470 | 1470 ± 80 |  | 
N=C(N)NCCC[C@H](N)C(=O)NCC(=O)NCC(=O)N[C@@H](Cc1ccc(O)cc1)C(=O)O [Arg-Gly-Gly-Tyr] (H-RGGY-OH) | 1480 | 1480 ± 110 |  | 
Leu-Tyr (peptide) |  |  | 310 | 
Gly-Gly-Tyr |  |  |  | IC50 [3]: 1.3 µM
Leu-Val-Ser (peptide) |  |  | 600 | 
Ala-His-Ser-Tyr (AHSY; printed: Ala-His-Ser-Tyr) |  |  |  | IC50 ([3]; isolated from cuttlefish): 11.6 µM
Tyr-Gln (peptide) |  |  | 2000 | 
NC(=O)CC[C@H](NC(=O)[C@@H](N)Cc1ccc(O)cc1)C(=O)O [Tyr-Gln] (H-Tyr-Gln-OH) | 2000 | 2000 ± 130 |  | 
CC(C)C[C@H](N)C(=O)N[C@H](C(=O)N[C@@H](CO)C(=O)O)C(C)C [Leu-Val-Ser] (H-Leu-Val-Ser-OH) | 599 | 600 ± 30 |  | 
RGGY [Arg-Gly-Gly-Tyr] |  |  | 1480 | 
APSY [Ala-Pro-Ser-Tyr] |  |  | 1470 | 
